Results published in the NIST ThermoML archive (doi:10.1021/je060096y).
Numbers after ± are expanded uncertainties.

Settings: for mass density: 298.15 K, 101.33 kPa, Liquid, Pycnometric method; for Glass transition temperature / Normal melting temperature: DTA; for Normal melting temperature: Crystal

CCCCCCCCn1cc[n+](C)c1.O=S(=O)([N-]S(=O)(=O)C(F)(F)F)C(F)(F)F
mass density: 1310 ± 20 kg/m3 | Glass transition temperature: -86.00 ± 2 °C

CCCC[n+]1ccc(C)cc1.O=S(=O)([N-]S(=O)(=O)C(F)(F)F)C(F)(F)F
mass density: 1350 ± 20 kg/m3 | Normal melting temperature: 10.00 ± 2 °C | Glass transition temperature: -80.00 ± 2 °C

CCCC[n+]1ccc(C)cc1.O=S(=O)([O-])C(F)(F)C(F)(F)C(F)(F)C(F)(F)F
Normal melting temperature: 70.00 ± 2 °C | Glass transition temperature: -34.00 ± 2 °C

CCCC[n+]1ccn(C)c1.O=S(=O)([N-]S(=O)(=O)C(F)(F)F)C(F)(F)F
Normal melting temperature: -4.00 ± 2 °C

CCCCn1cc[n+](C)c1.O=S(=O)([O-])C(F)(F)F [1-butyl-3-methylimidazolium trifluoromethanesulfonate]
Normal melting temperature: 15.00 ± 2 °C

CCCC[n+]1ccc(C)cc1.O=S(=O)([O-])C(F)(F)F [1-butyl-4-methylpyridinium trifluoromethanesulfonate]
mass density: 1170 ± 20 kg/m3 | Normal melting temperature: 38.00 ± 2 °C | Glass transition temperature: -68.00 ± 2 °C

CCCCCCCCn1cc[n+](C)c1.O=S(=O)([O-])C(F)(F)C(F)(F)C(F)(F)C(F)(F)F [1-methyl-3-octylimidazolium perfluorobutanesulfonate]
mass density: 1330 ± 20 kg/m3 | Normal melting temperature: 32.00 ± 2 °C | Glass transition temperature: -86.00 ± 2 °C

CCCCCCCCn1cc[n+](C)c1.O=S(=O)([O-])C(F)(F)F [1-octyl-3-methylimidazolium trifluoromethanesulfonate]
mass density: 1120 ± 20 kg/m3 | Normal melting temperature: 5.00 ± 2 °C | Glass transition temperature: -80.00 ± 2 °C

CCCCCCCCn1cc[n+](C)c1.N#C[N-]C#N [3-methyl-1-octylimidazolium dicyanamide]
mass density: 1000 ± 20 kg/m3 | Normal melting temperature: -5.00 ± 2 °C | Glass transition temperature: -89.00 ± 2 °C
